Test results as given in the NIST ThermoML archive (doi:10.1016/j.jct.2016.03.026).

Assay: xn = mol fraction of the nth substance listed
Conditions: Fluid (supercritical or subcritical phases); for mass density: 263.15 K, Vibrating tube method; for speed of sound: Frequency=5 MHz, Pulse-echo method

O=C=O [carbon dioxide] + CO
x1 = 0.97
Conditions	mass density [kg/m3]
19700 kPa	1052.08
19725 kPa	1052.13
19750 kPa	1052.26
19775 kPa	1052.28
19800 kPa	1052.34
19825 kPa	1052.45
19850 kPa	1052.5
19875 kPa	1052.59
19900 kPa	1052.67
19925 kPa	1052.75
19950 kPa	1052.83
19975 kPa	1052.91
20000 kPa	1052.99

Conditions	speed of sound [m/s]
263.16 K, 3280 kPa, x1 = 0.97	626.2
263.16 K, 3800 kPa, x1 = 0.97	633.5
263.16 K, 5050 kPa, x1 = 0.97	649.7
263.16 K, 6020 kPa, x1 = 0.97	661.8
263.16 K, 6170 kPa, x1 = 0.97	664.3
263.16 K, 8100 kPa, x1 = 0.97	687.5
263.16 K, 10020 kPa, x1 = 0.97	706.8
263.16 K, 14960 kPa, x1 = 0.97	752.4
263.16 K, 19890 kPa, x1 = 0.97	792.8
263.16 K, 24920 kPa, x1 = 0.97	829.4
263.16 K, 29960 kPa, x1 = 0.97	862.5
263.16 K, 34890 kPa, x1 = 0.97	892.6
263.16 K, 39940 kPa, x1 = 0.97	921
263.16 K, 44890 kPa, x1 = 0.97	947
263.16 K, 49990 kPa, x1 = 0.97	972.3
263.16 K, 54910 kPa, x1 = 0.97	995.6
263.16 K, 60010 kPa, x1 = 0.97	1018.3
263.16 K, 65090 kPa, x1 = 0.97	1039.8
263.16 K, 69970 kPa, x1 = 0.97	1059.9
263.16 K, 75000 kPa, x1 = 0.97	1079.5
263.16 K, 80150 kPa, x1 = 0.97	1098.9
263.16 K, 90130 kPa, x1 = 0.97	1134.4
263.16 K, 100140 kPa, x1 = 0.97	1168
263.16 K, 110060 kPa, x1 = 0.97	1199.3
263.16 K, 119960 kPa, x1 = 0.97	1228.9
263.16 K, 140000 kPa, x1 = 0.97	1284.7
263.16 K, 159900 kPa, x1 = 0.97	1335.8
263.16 K, 179990 kPa, x1 = 0.97	1383.3
263.16 K, 194490 kPa, x1 = 0.97	1415.5
263.18 K, 6060 kPa, x1 = 0.7534	735.8
263.18 K, 9710 kPa, x1 = 0.7534	770.9
263.18 K, 14730 kPa, x1 = 0.7534	813.5
263.18 K, 14950 kPa, x1 = 0.9803	747.6
263.18 K, 20160 kPa, x1 = 0.7534	854.1
263.18 K, 24940 kPa, x1 = 0.7534	886.4
263.18 K, 30090 kPa, x1 = 0.7534	918.5
263.18 K, 34860 kPa, x1 = 0.9803	887.4
263.18 K, 35000 kPa, x1 = 0.7534	946.9
263.18 K, 39910 kPa, x1 = 0.9803	916.3
263.18 K, 40020 kPa, x1 = 0.7534	974
263.18 K, 44820 kPa, x1 = 0.7534	998.5
263.18 K, 44980 kPa, x1 = 0.9803	943.5
263.18 K, 49950 kPa, x1 = 0.7534	1023.2
263.18 K, 50170 kPa, x1 = 0.9803	969
263.18 K, 55000 kPa, x1 = 0.9803	992.2
263.18 K, 55090 kPa, x1 = 0.7534	1046.8
263.18 K, 59880 kPa, x1 = 0.7534	1067.8
263.18 K, 60140 kPa, x1 = 0.9803	1015.5
